# In patent publication US20250262201A1, “COMPOUNDS AND METHODS USEFUL FOR STABILIZING PHENYLALANINE HYDROXYLASE MUTATIONS” (Agios Pharmaceuticals, Inc., priority 2022, published 2025):
# Biological target: T1, human PAH with the R408W mutation (Homo sapiens, UniProt P00439, R408W)
# T1 construct: expressed in transfected cells
# T1 sequence (P00439 1-452 R408W): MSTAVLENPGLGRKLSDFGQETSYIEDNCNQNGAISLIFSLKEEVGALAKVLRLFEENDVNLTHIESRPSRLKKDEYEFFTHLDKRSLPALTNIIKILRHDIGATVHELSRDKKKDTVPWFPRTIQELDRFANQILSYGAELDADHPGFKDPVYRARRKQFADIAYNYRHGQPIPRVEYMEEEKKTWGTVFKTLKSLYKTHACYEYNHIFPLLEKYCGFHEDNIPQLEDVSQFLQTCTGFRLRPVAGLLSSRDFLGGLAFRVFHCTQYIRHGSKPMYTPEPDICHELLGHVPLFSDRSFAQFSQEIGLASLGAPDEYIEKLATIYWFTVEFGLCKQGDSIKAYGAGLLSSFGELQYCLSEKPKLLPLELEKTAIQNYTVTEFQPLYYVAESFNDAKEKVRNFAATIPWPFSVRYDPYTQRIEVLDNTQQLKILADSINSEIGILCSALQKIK
# Assay: Cell Based Phenylalanine Flux Assay
# Details: A375 R408W cells, 24 hrs with compound, then 20 μM sepiapterin and 800 μM 13C9,15N-Phenylalanine for 4 hours; 13C-Tyrosine by LC-MS; average where tested multiple times; read-out: AC50
row,SMILES,AC50 [µM]
1,Cc1nc(C2(O)CC2)oc1C(=O)N1CCc2[nH]cnc2C1c1ccc2ccccc2n1 (centres unmarked) [listing 1 of 2 here],1 to 5
2,Cn1nc(C(C)(C)O)cc1C(=O)N1CCc2[nH]cnc2C1c1ccc2ccccc2n1 (centres unmarked),> 5
3,O=C(C1CN(CC(F)(F)F)C1)N1CCc2[nH]cnc2C1c1ccc2ccccc2n1 (centres unmarked) [listing 1 of 2 here],1 to 5
4,O=C(c1cnn(-c2ccccn2)c1)N1CCc2[nH]cnc2C1c1ccc2ccccc2n1 (centres unmarked),1 to 5
5,O=C(C1CN(c2ccccn2)C1)N1CCc2[nH]cnc2C1c1ccc2ccccc2n1 (centres unmarked) [listing 1 of 2 here],1 to 5
6,Cn1ccc(C(=O)N2CCc3[nH]cnc3C2c2ccc3ccccc3n2)n1 (centres unmarked),1 to 5
7,Cn1nc(COC(F)(F)F)cc1C(=O)N1CCc2[nH]cnc2C1c1ccc2ccccc2n1 (centres unmarked) [listing 1 of 2 here],1 to 5
8,Cn1nc(C(F)(F)F)nc1C(=O)N1CCc2[nH]cnc2C1c1ccc2ccccc2n1 (centres unmarked),1 to 5
9,O=C(c1cn[nH]c1)N1CCc2[nH]cnc2C1c1ccc2ccccc2n1 (centres unmarked),1 to 5
10,O=C(c1ccn[nH]1)N1CCc2[nH]cnc2C1c1ccc2ccccc2n1 (centres unmarked) [listing 1 of 2 here],1 to 5
11,Cn1cc(-c2ncc(C(=O)N3CCc4[nH]cnc4C3c3ccc4ccccc4n3)o2)cn1 (centres unmarked),1 to 5
12,Cc1nc(CCN2CC(F)C2)oc1C(=O)N1CCc2[nH]cnc2C1c1ccc2ccccc2n1 (centres unmarked) [listing 1 of 2 here],1 to 5
13,Cc1nc(C(C)(C)S(C)(=O)=O)oc1C(=O)N1CCc2[nH]cnc2C1c1ccc2ccccc2n1 (centres unmarked),1 to 5
14,COC(C)(C)c1nc(C)c(C(=O)N2CCc3[nH]cnc3C2c2ccc3ccccc3n2)o1 (centres unmarked),1 to 5
15,Cc1nc(N2CCC(F)CC2)oc1C(=O)N1CCc2[nH]cnc2C1c1ccc2ccccc2n1 (centres unmarked) [listing 1 of 2 here],1 to 5
16,Cc1nc(C2CCN2)oc1C(=O)N1CCc2[nH]cnc2C1c1ccc2ccccc2n1 (centres unmarked) [listing 1 of 2 here],1 to 5
17,O=C(c1oc(C2CC2)nc1C(F)F)N1CCc2[nH]cnc2C1c1ccc2ccccc2n1 (centres unmarked),1 to 5
18,CC(C)(O)c1cc(C(=O)N2CCc3[nH]cnc3C2c2ccc3ccccc3n2)on1 (centres unmarked),1 to 5
19,CC(C)(O)c1cc(C(=O)N2CCc3[nH]cnc3C2c2ccc3ccccc3n2)[nH]n1 (centres unmarked),> 5
20,O=C(c1oc(-c2ccccn2)nc1C1CC1)N1CCCc2[nH]cnc2C1c1ccc2ccccc2n1 (centres unmarked) [listing 1 of 2 here],1 to 5
21,Cc1nc(N2CCN(C)CC2)oc1C(=O)N1CCc2[nH]cnc2C1c1ccc2ccccc2n1 (centres unmarked),1 to 5
22,Cc1nc(N2CCOCC2)oc1C(=O)N1CCc2[nH]cnc2C1c1ccc2ccccc2n1 (centres unmarked) [listing 1 of 2 here],1 to 5
23,O=C(c1nnc(-c2ccn(CC(F)F)n2)o1)N1CCc2[nH]cnc2C1c1ccc2ccccc2n1 (centres unmarked) [listing 1 of 2 here],1 to 5

row,SMILES,AC50 [µM]
1,O=C(c1nnc(-c2cn[nH]c2)o1)N1CCc2[nH]cnc2C1c1ccc2ccccc2n1 (centres unmarked) [listing 1 of 2 here],1 to 5
2,O=C(c1nnc(CCN2CCOCC2)o1)N1CCc2[nH]cnc2C1c1ccc2ccccc2n1 (centres unmarked) [listing 1 of 2 here],1 to 5
3,O=C(c1nnc(N2CC(F)C2)o1)N1CCc2[nH]cnc2C1c1ccc2ccccc2n1 (centres unmarked) [listing 1 of 2 here],1 to 5
4,O=C(c1nnc(C2CC(F)(F)C2)o1)N1CCc2[nH]cnc2C1c1ccc2ccccc2n1 (centres unmarked) [listing 1 of 2 here],1 to 5
5,O=C(c1nnc(-c2ccc(C(F)(F)F)cc2)o1)N1CCc2[nH]cnc2C1c1ccc2ccccc2n1 (centres unmarked) [listing 1 of 2 here],1 to 5
6,Cc1cc(F)ccc1-c1nnc(C(=O)N2CCc3[nH]cnc3C2c2ccc3ccccc3n2)o1 (centres unmarked),1 to 5
7,O=C(c1nnc(N2CCC(F)CC2)o1)N1CCc2[nH]cnc2C1c1ccc2ccccc2n1 (centres unmarked) [listing 1 of 2 here],1 to 5
8,O=C(c1nnc(-c2ccc(C(F)(F)F)cn2)o1)N1CCc2[nH]cnc2C1c1ccc2ccccc2n1 (centres unmarked) [listing 1 of 2 here],1 to 5
9,O=C(c1nnc(COC(F)(F)F)o1)N1CCc2[nH]cnc2C1c1ccc2ccccc2n1 (centres unmarked) [listing 1 of 2 here],1 to 5
10,COCc1nnc(C(=O)N2CCc3[nH]cnc3C2c2ccc3ccccc3n2)o1 (centres unmarked),1 to 5
11,O=C(c1nnc(-c2ccccn2)o1)N1CCCc2[nH]cnc2C1c1ccc2ccccc2n1 (centres unmarked),> 5
12,O=C(c1cnn(CC(F)(F)F)c1Cl)N1CCc2[nH]cnc2C1c1ccc2ccccc2n1 (centres unmarked) [listing 1 of 2 here],1 to 5
13,O=C(c1cnn(-c2ccccn2)c1Cl)N1CCc2[nH]cnc2C1c1ccc2ccccc2n1 (centres unmarked) [listing 1 of 2 here],1 to 5
14,COCCc1ccc2c(C(=O)N3CCc4[nH]cnc4C3c3ccc4ccccc4n3)cnn2c1 (centres unmarked) [listing 1 of 2 here],1 to 5
15,COCc1ccc2c(C(=O)N3CCc4[nH]cnc4C3c3ccc4ccccc4n3)cnn2c1 (centres unmarked),> 5
16,O=C(C1CC1(F)F)N1CCc2[nH]cnc2C1c1ccc2ccccc2n1 (centres unmarked),1 to 5
17,Cc1nc(N)oc1C(=O)N1CCc2[nH]cnc2C1c1ccc2ccccc2n1 (centres unmarked) [listing 1 of 2 here],1 to 5
18,O=C(c1nnc(CCNC2CC2)o1)N1CCc2[nH]cnc2C1c1ccc2ccccc2n1 (centres unmarked) [listing 1 of 2 here],1 to 5
19,COCCNc1nnc(C(=O)N2CCc3[nH]cnc3C2c2ccc3ccccc3n2)o1 (centres unmarked) [listing 1 of 2 here],1 to 5
20,Cc1nc(NC2CC2)oc1C(=O)N1CCc2[nH]cnc2C1c1ccc2ccccc2n1 (centres unmarked) [listing 1 of 2 here],1 to 5
21,O=C(c1nnc(NC2CC2)o1)N1CCc2[nH]cnc2C1c1ccc2ccccc2n1 (centres unmarked) [listing 1 of 2 here],1 to 5
22,CN(C)c1nnc(C(=O)N2CCc3[nH]cnc3C2c2ccc3ccccc3n2)o1 (centres unmarked) [listing 1 of 2 here],1 to 5
23,Cc1nc(N(C)C)oc1C(=O)N1CCc2[nH]cnc2C1c1ccc2ccccc2n1 (centres unmarked),1 to 5

row,SMILES,AC50 [µM]
1,Cc1nc(CCN(C)C)oc1C(=O)N1CCc2[nH]cnc2C1c1ccc2ccccc2n1 (centres unmarked),1 to 5
2,CN(C)Cc1nnc(C(=O)N2CCc3[nH]cnc3C2c2ccc3ccccc3n2)o1 (centres unmarked) [listing 1 of 2 here],1 to 5
3,COC(=O)N1CC(C(=O)N2CCc3[nH]cnc3C2c2ccc3ccccc3n2)C1 (centres unmarked),> 5
4,Cc1nc(C2(O)CC2)oc1C(=O)N1CCc2[nH]cnc2C1c1ccc2ccccc2n1 (centres unmarked) [listing 2 of 2 here],> 5
5,O=C(C1CN(CC(F)(F)F)C1)N1CCc2[nH]cnc2C1c1ccc2ccccc2n1 (centres unmarked) [listing 2 of 2 here],> 5
6,O=C(C1CN(c2ccccn2)C1)N1CCc2[nH]cnc2C1c1ccc2ccccc2n1 (centres unmarked) [listing 2 of 2 here],> 5
7,Cn1nc(COC(F)(F)F)cc1C(=O)N1CCc2[nH]cnc2C1c1ccc2ccccc2n1 (centres unmarked) [listing 2 of 2 here],> 5
8,O=C(c1ccn[nH]1)N1CCc2[nH]cnc2C1c1ccc2ccccc2n1 (centres unmarked) [listing 2 of 2 here],> 5
9,Cc1nc(CCN2CC(F)C2)oc1C(=O)N1CCc2[nH]cnc2C1c1ccc2ccccc2n1 (centres unmarked) [listing 2 of 2 here],> 5
10,Cc1nc(N2CCC(F)CC2)oc1C(=O)N1CCc2[nH]cnc2C1c1ccc2ccccc2n1 (centres unmarked) [listing 2 of 2 here],> 5
11,Cc1nc(C2CCN2)oc1C(=O)N1CCc2[nH]cnc2C1c1ccc2ccccc2n1 (centres unmarked) [listing 2 of 2 here],> 5
12,COCc1ncc(C(=O)N2CCc3[nH]cnc3C2c2ccc3ccccc3n2)s1 (centres unmarked),> 5
13,O=C(c1oc(-c2ccccn2)nc1C1CC1)N1CCCc2[nH]cnc2C1c1ccc2ccccc2n1 (centres unmarked) [listing 2 of 2 here],> 5
14,Cc1nc(N2CCOCC2)oc1C(=O)N1CCc2[nH]cnc2C1c1ccc2ccccc2n1 (centres unmarked) [listing 2 of 2 here],> 5
15,O=C(c1nnc(-c2ccn(CC(F)F)n2)o1)N1CCc2[nH]cnc2C1c1ccc2ccccc2n1 (centres unmarked) [listing 2 of 2 here],> 5
16,O=C(c1nnc(-c2cn[nH]c2)o1)N1CCc2[nH]cnc2C1c1ccc2ccccc2n1 (centres unmarked) [listing 2 of 2 here],> 5
17,O=C(c1nnc(CCN2CCOCC2)o1)N1CCc2[nH]cnc2C1c1ccc2ccccc2n1 (centres unmarked) [listing 2 of 2 here],> 5
18,O=C(c1nnc(N2CC(F)C2)o1)N1CCc2[nH]cnc2C1c1ccc2ccccc2n1 (centres unmarked) [listing 2 of 2 here],> 5
19,O=C(c1nnc(C2CC(F)(F)C2)o1)N1CCc2[nH]cnc2C1c1ccc2ccccc2n1 (centres unmarked) [listing 2 of 2 here],> 5
20,O=C(c1nnc(-c2ccc(C(F)(F)F)cc2)o1)N1CCc2[nH]cnc2C1c1ccc2ccccc2n1 (centres unmarked) [listing 2 of 2 here],> 5
21,O=C(c1nnc(N2CCC(F)CC2)o1)N1CCc2[nH]cnc2C1c1ccc2ccccc2n1 (centres unmarked) [listing 2 of 2 here],> 5
22,O=C(c1nnc(-c2ccc(C(F)(F)F)cn2)o1)N1CCc2[nH]cnc2C1c1ccc2ccccc2n1 (centres unmarked) [listing 2 of 2 here],> 5
23,O=C(c1nnc(COC(F)(F)F)o1)N1CCc2[nH]cnc2C1c1ccc2ccccc2n1 (centres unmarked) [listing 2 of 2 here],> 5

row,SMILES,AC50 [µM]
1,O=C(c1cnn(CC(F)(F)F)c1Cl)N1CCc2[nH]cnc2C1c1ccc2ccccc2n1 (centres unmarked) [listing 2 of 2 here],> 5
2,O=C(c1cnn(-c2ccccn2)c1Cl)N1CCc2[nH]cnc2C1c1ccc2ccccc2n1 (centres unmarked) [listing 2 of 2 here],> 5
3,COCCc1ccc2c(C(=O)N3CCc4[nH]cnc4C3c3ccc4ccccc4n3)cnn2c1 (centres unmarked) [listing 2 of 2 here],> 5
4,Cc1nc(N)oc1C(=O)N1CCc2[nH]cnc2C1c1ccc2ccccc2n1 (centres unmarked) [listing 2 of 2 here],> 5
5,O=C(c1nnc(CCNC2CC2)o1)N1CCc2[nH]cnc2C1c1ccc2ccccc2n1 (centres unmarked) [listing 2 of 2 here],> 5
6,COCCNc1nnc(C(=O)N2CCc3[nH]cnc3C2c2ccc3ccccc3n2)o1 (centres unmarked) [listing 2 of 2 here],> 5
7,Cc1nc(NC2CC2)oc1C(=O)N1CCc2[nH]cnc2C1c1ccc2ccccc2n1 (centres unmarked) [listing 2 of 2 here],> 5
8,O=C(c1nnc(NC2CC2)o1)N1CCc2[nH]cnc2C1c1ccc2ccccc2n1 (centres unmarked) [listing 2 of 2 here],> 5
9,CN(C)c1nnc(C(=O)N2CCc3[nH]cnc3C2c2ccc3ccccc3n2)o1 (centres unmarked) [listing 2 of 2 here],> 5
10,CN(C)Cc1nnc(C(=O)N2CCc3[nH]cnc3C2c2ccc3ccccc3n2)o1 (centres unmarked) [listing 2 of 2 here],> 5
11,Cc1ncoc1C(=O)N1CC2(CC2)c2[nH]cnc2C1c1ccc2ccccc2n1 (centres unmarked),1 to 5
12,CC1CN(C(=O)c2nnc(C(C)(C)O)o2)C(c2cc3ccccc3cn2)c2nc[nH]c21 (centres unmarked),1 to 5
13,CC1CN(C(=O)c2nnc(-c3cnn(C)c3)o2)C(c2cc3ccccc3cn2)c2nc[nH]c21 (centres unmarked) [listing 1 of 2 here],1 to 5
14,CC1CN(C(=O)c2nnc(N3CCOCC3)o2)C(c2cc3ccccc3cn2)c2nc[nH]c21 (centres unmarked) [listing 1 of 2 here],1 to 5
15,CC1CN(C(=O)c2nnc(N(C)C)o2)C(c2cc3ccccc3cn2)c2nc[nH]c21 (centres unmarked) [listing 1 of 3 here],1 to 5
16,COCc1ccc2c(C(=O)N3CC(C)c4[nH]cnc4C3c3cc4ccccc4cn3)cnn2c1 (centres unmarked),1 to 5
17,CC1CN(C(=O)c2nnc(-c3cnn(C)c3)o2)C(c2cc3ccccc3cn2)c2nc[nH]c21 (centres unmarked) [listing 2 of 2 here],1 to 5
18,CC1CN(C(=O)c2nnc(N(C)C)o2)C(c2cc3ccccc3cn2)c2nc[nH]c21 (centres unmarked) [listing 2 of 3 here],1 to 5
19,CC1CN(C(=O)c2nnc(N3CCOCC3)o2)C(c2cc3ccccc3cn2)c2nc[nH]c21 (centres unmarked) [listing 2 of 2 here],> 5
20,CC1CN(C(=O)c2nnc(N(C)C)o2)C(c2cc3ccccc3cn2)c2nc[nH]c21 (centres unmarked) [listing 3 of 3 here],> 5
